Assay results from ChEMBL document CHEMBL3507680, “University of Dundee, Gates Library screen for HepG2 cell viability”.

Assay: Human HepG2 cell viability assay in 384 well format
Assay type: toxicity, cell-based
Parameters: dose 125 nL, time 70.5 hour; concentration not given beside the values
Settings: HepG2 cells, read-out: Inhibition

Row | SMILES | cytotoxicity at 70.5 h [%]
1 | COc1ccccc1CN1CC(OC)CN(C(=O)CC(C)C)CC1=O (centres undefined) | -5.03
2 | COc1ccccc1CN1CC(OC)CN(C(=O)OCC(C)C)CC1=O (centres undefined) | -3.02
3 | CCCC(O)CN1CC(C)(C)CN(C(=O)c2ccc(Cl)cc2)CC1=O (centres undefined) | -9.8
4 | CC1(C)CNC(=O)CN(C(=O)Cc2ccccc2)C1 | 0.101
5 | CCCC(O)CN1CC(C)(C)CN(C(=O)c2ccc(SC)cc2)CC1=O (centres undefined) | -8.02
6 | O=S1(=O)c2cnccc2OC(COc2ccccc2)CN1CC1CC1 (centres undefined) | -1.49
7 | CC(C)(C)CN1CC(COc2ccccc2)Oc2ccncc2S1(=O)=O (centres undefined) | 10.8
8 | CCOC(=O)[C@H]1[C@@H](O)C(=O)N(C)C12CCN(C(=O)CC(C)C)CC2 | -6.09
9 | CCOC(=O)[C@H]1[C@@H](O)C(=O)N(C)C12CCN(S(=O)(=O)CC)CC2 | -10.3
10 | CCOC(=O)[C@H]1[C@@H](O)C(=O)N(C)C12CCN(C(=O)C(CC)CC)CC2 | -3.26
11 | CCOC(=O)[C@H]1[C@@H](O)C(=O)N(C)C12CCN(C(=O)CC1CCCC1)CC2 | -3.01
12 | CCN1CC(CN2CCOCC2)Oc2ncccc2C1=O (centres undefined) | 13.2
13 | O=C1c2cccnc2OC(CN2CCOCC2)CN1Cc1cccs1 (centres undefined) | -4.39
14 | CCN1Cc2cc3c(cc2NCCC1=O)OCO3 | 6.48
15 | COCCCN1CC2(CCCCN2C(=O)C2CCCCC2)CC1=O (centres undefined) | -3.42
16 | CC(=O)N1CCC2(CC1)C(=O)N(c1ccc(C)nc1)CCN2CC(C)C | -4.45
17 | COc1ncccc1CN1CC[C@H]2O[C@@H](c3nnc(C)o3)CC[C@H]21 | -6.07
18 | c1cncc(COCC2CNCc3nccn3C2)c1 (centres undefined) | 3.07
19 | CC(C)(CO)CNC(=O)c1ccnn1-c1ccc2ccccn12 | -2.1
20 | COCCCN1CC2(CCCCN2C(C)=O)CC1=O (centres undefined) | -7.86
21 | O=C(CCO)N1CCC2(CCc3ccc(-c4ccoc4)cc32)CC1 | -12.5
22 | COc1ncccc1CN1CC[C@H]2O[C@H](c3nnc(C)o3)CC[C@H]21 | -11.5
23 | CN(C)c1ccc2c(c1)CN(C(=O)c1cnccn1)C2c1cnco1 (centres undefined) | 22.8
24 | CC1N(CC2CC2)C(=O)COC12CCN(C(=O)c1cccs1)CC2 (centres undefined) | -5.2
25 | CN(C)c1ccc2c(c1)CN(C(=O)c1c[nH]cn1)C2c1cnco1 (centres undefined) | 29.3
26 | CC1N(CC2CC2)C(=O)COC12CCN(C(=O)c1ccncc1)CC2 (centres undefined) | -1.87

Row | SMILES | cytotoxicity at 70.5 h [%]
27 | CN(C)C[C@H]1C[C@@H]2CN(C(=O)c3ccco3)C[C@@H]2O1 | -2.65
28 | c1cnc(NCc2n[nH]c3c2CCN(Cc2ccncc2)C3)nc1 | -6.35
29 | CCN1CC2(CC1=O)CN(C(=O)NC)CCN(S(C)(=O)=O)C2 (centres undefined) | -6.12
30 | Cc1cnc(CNC(=O)C[C@@H]2COC[C@H]3CN(C4CCC4)C[C@@H]23)cn1 | 25.6
31 | CN(C)CCN1C[C@@H]2CN(C(=O)C3CC=CC3)C[C@@H]2C1=O | -10.8
32 | CN(C)CC(=O)N1Cc2cc(N(C)C)ccc2C1c1cnco1 (centres undefined) | -12.7
33 | COCC(=O)N1CCC2(CC1)CCn1c(-c3cccc(OC)c3)cnc12 | 36.2
34 | CC(C)NC(=O)N1CCC2(CC1)CCn1c(C3CC3)cnc12 | 51.2
35 | CC(C)Nc1nc2c(c(NC3CC3)n1)CN(C(=O)Cc1ccsc1)CC2 | 3.26
36 | Cc1cnc(N2CCC3(CC2)C(c2ccccc2)CC(=O)N3C)nc1 (centres undefined) | -10.2
37 | CN(C)C(=O)N1CC2(CCOCC2)c2cc(NS(=O)(=O)C3CC3)ccc21 | 11.5
38 | O=C(Nc1cnccn1)[C@H]1COC[C@H]2CN(c3ncc(F)cn3)C[C@H]21 | -5.25
39 | CNC(=O)N1CCC2(CC1)CN(C)c1ccc(F)cc12 | 2.16
40 | CC(C)Nc1nc2c(c(NC3CC3)n1)CN(C(=O)c1ccsc1)CC2 | -17.2
41 | c1cnc(N2CC3(CCN(C4CCOC4)CC3)c3ccccc32)nc1 (centres undefined) | -6.16
42 | COc1cccc(CNC(=O)c2nc3c(o2)CN(C(=O)N(C)C)C3)c1 | -8.42
43 | Cc1ccc(CN2C[C@H]3C[C@H](C(=O)NCc4cccnc4)[C@@H](C2)O3)cc1 | 37.6
44 | O=C(C1CC1)N1CCC2(CC1)CNCCO2 | 4.17
45 | CC(C)N(C)C(=O)C1=NOC2(CCN(C(=O)c3cccn3C)C2)C1 (centres undefined) | 24.9
46 | CC(C)N(C)C(=O)C1=NOC2(CCN(C(=O)c3ccnnc3)C2)C1 (centres undefined) | -1.5
47 | CCOCC(=O)N1Cc2nccn2CC(CN(C)C)C1 (centres undefined) | 1.2
48 | Cc1noc([C@@H]2C[C@H]3OCC[C@H]3N(S(=O)(=O)N(C)C)C2)n1 | -0.423
49 | Cc1ccc(N2CCOCC3(CCCN(c4ncc(F)cn4)C3)C2)nn1 (centres undefined) | -3.89
50 | Cc1cnc(N2CCCC3(COCCN(c4ccc(C)nn4)C3)C2)nc1 (centres undefined) | -2.56
51 | CN(C)c1nccc(N2CCO[C@H]3CN(Cc4ccco4)C[C@H]32)n1 | 3.82
52 | O=c1cc(CN2CCCC2)nc2n1CCCN(Cc1ccoc1)C2 | 1.82

Row | SMILES | cytotoxicity at 70.5 h [%]
53 | Cc1noc([C@@H]2C[C@H]3OCC[C@H]3N(S(=O)(=O)c3ccccc3)C2)n1 | -1.71
54 | CN1C(=O)CC[C@@H]2[C@H]1CCN2S(=O)(=O)Cc1ccccc1 | 47.7
55 | CS(=O)(=O)N1CC[C@@H]2O[C@@H](COCC(=O)N3CCCC3)CC[C@@H]21 | 22.1
56 | COc1cc(N2C[C@H](C(=O)NC3CC3)[C@@H]3CCO[C@@H]3C2)ncn1 | -7.61
57 | Cn1cc(CN2CCC3(CCCN(C(=O)c4cscn4)C3)C2)cn1 (centres undefined) | -3.85
58 | CNC(=O)N1Cc2cc(F)ccc2C2(CCN(C)CC2)C1 | -1.35
59 | CNC(=O)N1CCC2(CC1)CN(C)Cc1cc(F)ccc12 | 2.33
60 | N#Cc1cccc(N2CCCC3(C2)CN(c2ncccn2)CCO3)n1 (centres undefined) | -6.81
61 | COCc1n[nH]c2c1CN(C(=O)c1ccncc1)C2 | -10.2
62 | CC(=O)N1CCc2cc(C(=O)O)c(-c3ccsc3)nc2CC1 | -0.0308
63 | Cc1nnc([C@@H]2C[C@H]3CN(C4CCC4)C[C@H]3O2)[nH]1 | -0.989
64 | Cc1nnc([C@@H]2C[C@H]3CN(C(=O)c4c(C)noc4C)C[C@H]3O2)[nH]1 | -11.6
65 | Cc1cccc(CN2CCc3[nH]nc(C(=O)N4CCNC(=O)C4)c3C2)n1 | -10.5
66 | Cc1ccc(N2C[C@@H]3CN(C(=O)c4ccccc4)CCO[C@@H]3C2)nn1 | 23.3
67 | CN(C)CCN1C[C@@H]2CN(C(=O)C3CCOC3)C[C@@H]2C1=O (some centres undefined) | 23.4
68 | CC(C)N1CCOCC2(CCCN(C(=O)c3cncn3C)C2)C1 (centres undefined) | -8.05
69 | O=C1CC[C@H]2[C@H](CCN2c2ccccn2)N1CC1CCOCC1 | -9.84
70 | O[C@@H]1CCN(CC2CCOC2)[C@H]1Cc1ccccc1 (some centres undefined) | -3.68
71 | CN(C)C(=O)COC[C@@]12CCC[C@@H]1CN(C1CCCC1)C2 | -1.63
72 | CC(C)n1nc(Cn2cccc2)c2c1CN(Cc1ccoc1)C2 | -4.83
73 | Cc1ccc(N2CC[C@H]3[C@@H]2CCC(=O)N3CCN2CCOCC2)nn1 | -6.53
74 | CN(C)CCOC1CC2(CCN(c3cnccn3)CC2)c2ccccc21 (centres undefined) | 31.5
75 | Cc1nc(COCc2nc3c(o2)CN(C(=O)c2ccc[nH]2)C3)cs1 | -3.29
76 | c1ccc(OCc2nnn3c2CN(c2ncccn2)CCC3)nc1 | 6.14
77 | CCN(CC)c1ccc2ccc(C(=O)N(CCOC)CCOC)cn12 | -0.14
78 | CN(C)CC1CN(C(=O)Cc2ccccc2)Cc2nccn2C1 (centres undefined) | 24

Row | SMILES | cytotoxicity at 70.5 h [%]
79 | O=C(C[C@@H]1COC[C@H]2CN(C(=O)c3cccnc3)C[C@@H]12)N1CCOCC1 | -4.26
80 | O=C1COC2(CCN(Cc3cccs3)CC2)CN1c1cncnc1 | 0.999
81 | Cc1ccc(N2CCCC3(COCCN(c4ccccn4)C3)C2)nn1 (centres undefined) | -8.01
82 | COCC(=O)N1CCCn2c(CN3CCOCC3)nnc2C1 | 2.56
83 | N#Cc1cccc(CN2Cc3nccn3CC(COCC3CC3)C2)c1 (centres undefined) | 8.65
84 | CC(C)N(C)Cc1cn2c(n1)CN(C(=O)Cc1ccccc1)CC2 | -2.24
85 | c1ccc(N2CCC3(CCCN(c4ncccn4)C3)C2)nc1 (centres undefined) | 2.93
86 | Cc1ccc(C(=O)N2CCC3(CCN3c3ncccn3)C2)cn1 (centres undefined) | -1.31
87 | O=C(C[C@@H]1COC[C@H]2CN(C(=O)c3cccnc3)C[C@@H]12)N1CCCC1 | 1.64
88 | CC1N(C)C(=O)COC12CCN(Cc1nccs1)CC2 (centres undefined) | -9.04
89 | Cn1cccc1C(=O)N1C[C@@H]2C[C@@H](c3nc(C4CC4)cs3)O[C@@H]2C1 | 4.85
90 | O=C(c1cscn1)N1CCC2(CN(Cc3ccsc3)C2)C1 | 31.3
91 | Cn1cc(CN2C[C@H]3CCN(C(=O)c4cscn4)C[C@H]3C2)cn1 | 27.4
92 | Cc1nnc([C@H]2C[C@@H]3CCN(Cc4ccc(C)o4)C[C@H]3O2)[nH]1 | -7.28
93 | Cc1ccc(CN2CCc3c(COC(C)C)nn(C)c3C2)s1 | -9.08
94 | Cn1cc(CN2CCC3(CC2)CCN(C(=O)c2cscn2)CC3)cn1 | -1.71
95 | COCc1nn(C(C)C)c2c1CCN(Cc1ccc(C)o1)C2 | -4.09
96 | CN(Cc1ccco1)Cc1cnc2n1CCN(c1ccccn1)CC2 | -2.44
97 | CN1CCOCC2(CCN(Cc3ccc[nH]3)CC2)C1 | 30
98 | O=C(C[C@@H]1COC[C@H]2CN(Cc3cccnc3)C[C@@H]12)N1CCCC1 | -4.76
99 | O=C1COC2(CCN(Cc3ccncc3)CC2)CN1c1ccccc1 | 2.43
100 | Cn1ncc2c1CN(Cc1ccc(F)cc1)CC2COCC1CC1 (centres undefined) | 31.5
101 | Cn1ncc2c1CN(Cc1ccccc1F)CC2COCC1CC1 (centres undefined) | 23.7
102 | COCCN1C[C@H](OCc2csc(C)n2)[C@H]2COC[C@H]21 | -9.78
103 | CC(C)N(C)[C@@H]1CCN(Cc2nccs2)[C@H]1Cc1ccncc1 | -8.84
104 | CN(C)CCN1CCOCC2(CCN(Cc3ccc[nH]3)CC2)C1 | 0.665
